Test results published in ChEMBL document CHEMBL5260810, “Inhibition of bromodomain-containing protein 9 for the prevention of epigenetically-defined drug resistance” (Bioorg Med Chem Lett, 2017).
pIC50, pKd: −log10 of the molar value.

Target: Adrenergic receptor alpha-1 (Rattus norvegicus) (UniProt P15823+P23944+P43140)
Assay: Displacement of [3H]-prazosin from rat alpha1 adrenoceptor at 10 uM after 60 mins by scintillation counting analysis relative to control
Format: protein assay
Conditions: not given

Row | Structure (SMILES) | Activity
1 | C/C=C/Cn1cc(-c2ccc(C(=O)N3CCOCC3)cc2)c2cc[nH]c2c1=O | 7%

Target: Chromatin remodeling regulator CECR2 (Homo sapiens, UniProt Q9BXF3)
Sequence (Q9BXF3 whole entry, the tested form may be a part): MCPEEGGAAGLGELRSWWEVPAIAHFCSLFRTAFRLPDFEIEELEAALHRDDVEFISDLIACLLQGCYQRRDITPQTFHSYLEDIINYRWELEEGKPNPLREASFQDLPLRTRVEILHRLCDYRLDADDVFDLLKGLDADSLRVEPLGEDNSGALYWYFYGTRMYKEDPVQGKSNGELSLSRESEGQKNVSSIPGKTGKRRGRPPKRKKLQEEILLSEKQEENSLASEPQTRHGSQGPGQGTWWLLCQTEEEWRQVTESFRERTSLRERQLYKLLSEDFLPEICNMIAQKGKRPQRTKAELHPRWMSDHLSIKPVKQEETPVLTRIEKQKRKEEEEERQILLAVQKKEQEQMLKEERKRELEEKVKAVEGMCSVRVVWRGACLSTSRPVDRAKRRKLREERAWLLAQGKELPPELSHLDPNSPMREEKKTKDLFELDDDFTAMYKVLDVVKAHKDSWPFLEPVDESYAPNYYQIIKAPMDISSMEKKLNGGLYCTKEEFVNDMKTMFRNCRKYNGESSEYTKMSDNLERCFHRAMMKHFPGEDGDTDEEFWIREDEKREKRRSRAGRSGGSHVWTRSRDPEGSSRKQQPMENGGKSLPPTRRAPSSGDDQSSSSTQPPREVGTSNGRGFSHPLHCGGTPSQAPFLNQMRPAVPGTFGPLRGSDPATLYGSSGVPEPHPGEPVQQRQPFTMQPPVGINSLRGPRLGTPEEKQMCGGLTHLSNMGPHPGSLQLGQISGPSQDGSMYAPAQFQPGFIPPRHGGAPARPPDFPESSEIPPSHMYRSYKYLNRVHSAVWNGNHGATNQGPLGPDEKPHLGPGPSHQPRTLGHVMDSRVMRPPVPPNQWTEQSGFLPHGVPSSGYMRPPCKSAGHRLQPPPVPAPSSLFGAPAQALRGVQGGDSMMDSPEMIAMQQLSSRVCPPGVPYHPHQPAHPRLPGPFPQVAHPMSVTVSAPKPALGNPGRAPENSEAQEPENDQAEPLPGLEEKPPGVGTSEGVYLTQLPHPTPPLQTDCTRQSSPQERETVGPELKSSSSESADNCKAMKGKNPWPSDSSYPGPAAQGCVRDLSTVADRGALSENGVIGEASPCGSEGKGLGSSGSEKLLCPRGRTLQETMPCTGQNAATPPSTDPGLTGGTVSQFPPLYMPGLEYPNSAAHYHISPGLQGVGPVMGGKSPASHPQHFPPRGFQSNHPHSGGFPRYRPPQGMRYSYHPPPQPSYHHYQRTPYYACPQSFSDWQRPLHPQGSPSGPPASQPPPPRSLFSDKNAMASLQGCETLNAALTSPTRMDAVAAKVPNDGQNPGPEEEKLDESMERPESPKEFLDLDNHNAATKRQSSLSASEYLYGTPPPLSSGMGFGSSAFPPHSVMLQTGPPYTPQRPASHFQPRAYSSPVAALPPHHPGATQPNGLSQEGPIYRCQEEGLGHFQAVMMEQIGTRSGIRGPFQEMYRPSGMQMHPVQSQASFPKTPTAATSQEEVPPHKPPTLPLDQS
Assay: Binding affinity to human partial length CECR2 (P423 to D543 residues) expressed in bacterial expression system by BROMOscan assay
Conditions: not given

Row | Structure (SMILES) | pKd
2 | C/C=C/Cn1cc(-c2ccc(C(=O)N3CCOCC3)cc2)c2cc[nH]c2c1=O | 5.42
3 | C/C=C/Cn1cc(-c2cc(OC)c(C(C)(C)O)cc2OC)c2cc(C)[nH]c2c1=O | < 5.00

Target: CREB-binding protein (Homo sapiens, UniProt Q92793)
Sequence (Q92793 whole entry, the tested form may be a part): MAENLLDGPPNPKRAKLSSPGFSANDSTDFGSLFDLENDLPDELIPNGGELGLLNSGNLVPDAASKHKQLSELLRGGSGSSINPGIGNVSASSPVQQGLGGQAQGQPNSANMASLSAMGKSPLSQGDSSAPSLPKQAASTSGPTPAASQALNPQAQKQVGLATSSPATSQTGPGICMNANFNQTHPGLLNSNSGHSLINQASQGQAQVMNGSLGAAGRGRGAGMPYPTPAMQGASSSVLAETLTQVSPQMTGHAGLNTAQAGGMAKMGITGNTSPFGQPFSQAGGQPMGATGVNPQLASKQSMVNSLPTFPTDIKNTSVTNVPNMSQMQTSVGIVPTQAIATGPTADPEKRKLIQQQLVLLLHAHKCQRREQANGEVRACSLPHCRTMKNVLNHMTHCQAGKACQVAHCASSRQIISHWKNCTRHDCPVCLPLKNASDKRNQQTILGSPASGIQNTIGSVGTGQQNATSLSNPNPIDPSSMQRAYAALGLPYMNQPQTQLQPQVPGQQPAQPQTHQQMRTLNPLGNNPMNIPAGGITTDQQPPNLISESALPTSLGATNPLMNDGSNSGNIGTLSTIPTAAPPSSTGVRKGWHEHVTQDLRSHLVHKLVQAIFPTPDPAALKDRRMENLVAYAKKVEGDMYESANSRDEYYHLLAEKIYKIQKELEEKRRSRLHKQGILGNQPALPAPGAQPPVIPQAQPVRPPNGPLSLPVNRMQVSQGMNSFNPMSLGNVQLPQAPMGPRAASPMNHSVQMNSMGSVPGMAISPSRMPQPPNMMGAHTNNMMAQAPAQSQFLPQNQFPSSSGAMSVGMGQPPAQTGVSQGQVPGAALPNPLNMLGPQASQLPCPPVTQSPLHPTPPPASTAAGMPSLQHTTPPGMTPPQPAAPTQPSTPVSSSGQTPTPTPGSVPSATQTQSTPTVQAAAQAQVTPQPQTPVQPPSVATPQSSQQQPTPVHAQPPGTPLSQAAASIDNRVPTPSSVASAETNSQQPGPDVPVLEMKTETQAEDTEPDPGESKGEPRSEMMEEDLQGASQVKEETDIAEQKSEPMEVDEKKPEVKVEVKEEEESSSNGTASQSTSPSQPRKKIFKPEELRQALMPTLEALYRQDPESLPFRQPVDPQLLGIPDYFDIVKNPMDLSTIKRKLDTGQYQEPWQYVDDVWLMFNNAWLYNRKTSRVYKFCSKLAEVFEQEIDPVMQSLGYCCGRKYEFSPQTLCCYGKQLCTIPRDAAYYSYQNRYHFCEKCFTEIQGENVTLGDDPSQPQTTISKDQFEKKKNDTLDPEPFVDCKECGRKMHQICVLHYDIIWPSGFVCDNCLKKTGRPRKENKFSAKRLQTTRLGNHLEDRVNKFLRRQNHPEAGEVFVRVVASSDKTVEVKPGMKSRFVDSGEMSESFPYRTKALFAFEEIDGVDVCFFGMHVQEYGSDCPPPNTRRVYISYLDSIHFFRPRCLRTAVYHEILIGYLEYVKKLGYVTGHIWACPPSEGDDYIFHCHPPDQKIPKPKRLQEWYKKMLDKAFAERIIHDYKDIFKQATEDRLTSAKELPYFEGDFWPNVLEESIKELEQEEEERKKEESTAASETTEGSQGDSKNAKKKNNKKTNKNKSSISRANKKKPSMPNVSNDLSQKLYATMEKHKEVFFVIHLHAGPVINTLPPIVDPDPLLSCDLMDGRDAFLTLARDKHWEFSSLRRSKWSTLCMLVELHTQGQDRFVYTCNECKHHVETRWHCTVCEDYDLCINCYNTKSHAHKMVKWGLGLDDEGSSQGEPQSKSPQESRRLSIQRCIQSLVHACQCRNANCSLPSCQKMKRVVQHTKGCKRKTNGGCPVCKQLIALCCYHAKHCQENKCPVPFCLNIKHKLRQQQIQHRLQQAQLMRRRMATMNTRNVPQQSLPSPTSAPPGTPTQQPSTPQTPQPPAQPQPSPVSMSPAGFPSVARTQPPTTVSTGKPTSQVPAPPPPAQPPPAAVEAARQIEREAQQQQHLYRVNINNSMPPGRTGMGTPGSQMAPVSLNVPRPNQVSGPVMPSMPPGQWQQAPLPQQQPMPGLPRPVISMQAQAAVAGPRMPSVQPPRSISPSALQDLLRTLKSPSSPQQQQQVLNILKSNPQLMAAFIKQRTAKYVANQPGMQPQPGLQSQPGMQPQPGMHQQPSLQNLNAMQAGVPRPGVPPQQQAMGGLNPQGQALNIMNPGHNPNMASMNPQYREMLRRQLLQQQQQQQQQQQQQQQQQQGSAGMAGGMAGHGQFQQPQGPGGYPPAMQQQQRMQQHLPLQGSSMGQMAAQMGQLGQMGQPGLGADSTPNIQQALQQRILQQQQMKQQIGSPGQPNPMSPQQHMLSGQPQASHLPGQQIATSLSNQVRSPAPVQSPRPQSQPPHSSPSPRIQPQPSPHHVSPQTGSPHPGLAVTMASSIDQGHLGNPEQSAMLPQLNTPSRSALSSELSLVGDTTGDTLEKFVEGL
Assay: Binding affinity to human partial length CREBBP (R1081 to G1197 residues) expressed in bacterial expression system by BROMOscan assay
Conditions: not given

Row | Structure (SMILES) | pKd
4 | C/C=C/Cn1cc(-c2ccc(C(=O)N3CCOCC3)cc2)c2cc[nH]c2c1=O | < 5.00
5 | C/C=C/Cn1cc(-c2cc(OC)c(C(C)(C)O)cc2OC)c2cc(C)[nH]c2c1=O | < 5.00

Tested on: NCI-H23
Assay: Cytotoxicity against human NCI-H23 cells measured after 8 days
Format: functional, cell-based
Conditions: NCI-H23, 192 h

Row | Structure (SMILES) | pIC50
6 | C/C=C/Cn1cc(-c2ccc(C(=O)N3CCOCC3)cc2)c2cc[nH]c2c1=O | 4.70

Tested on: T47D
Assay: Cytotoxicity against human T47D cells measured after 8 days
Format: functional, cell-based
Conditions: 192 h

Row | Structure (SMILES) | pIC50
7 | C/C=C/Cn1cc(-c2ccc(C(=O)N3CCOCC3)cc2)c2cc[nH]c2c1=O | 4.70

Tested on: IGR-37 cell line
Assay: Cytotoxicity against human IGR-37 cell line measured after 8 days
Format: functional, cell-based
Conditions: IGR-37, 192 h

Row | Structure (SMILES) | pIC50
8 | C/C=C/Cn1cc(-c2ccc(C(=O)N3CCOCC3)cc2)c2cc[nH]c2c1=O | 4.70

Tested on: not listed separately
Assay: Cytotoxicity against human OVTOKO cells measured after 8 days
Format: functional, cell-based
Conditions: 192 h

Row | Structure (SMILES) | pIC50
9 | C/C=C/Cn1cc(-c2ccc(C(=O)N3CCOCC3)cc2)c2cc[nH]c2c1=O | 4.75

Tested on: not listed separately
Assay: Cytotoxicity against human WSU-FSCCL cells measured after 8 days
Format: functional, cell-based
Conditions: 192 h

Row | Structure (SMILES) | pIC50
10 | C/C=C/Cn1cc(-c2ccc(C(=O)N3CCOCC3)cc2)c2cc[nH]c2c1=O | 4.70

Species: Homo sapiens
Assay: Inhibition of JAK1alpha1 (unknown origin) at 1 uM relative to control
Conditions: not given

Row | Structure (SMILES) | inhibition
11 | C/C=C/Cn1cc(-c2ccc(C(=O)N3CCOCC3)cc2)c2cc[nH]c2c1=O | 25.3%

Target: Bromodomain-containing protein 2 (Homo sapiens, UniProt P25440)
Sequence (P25440 whole entry, the tested form may be a part, canonical isoform): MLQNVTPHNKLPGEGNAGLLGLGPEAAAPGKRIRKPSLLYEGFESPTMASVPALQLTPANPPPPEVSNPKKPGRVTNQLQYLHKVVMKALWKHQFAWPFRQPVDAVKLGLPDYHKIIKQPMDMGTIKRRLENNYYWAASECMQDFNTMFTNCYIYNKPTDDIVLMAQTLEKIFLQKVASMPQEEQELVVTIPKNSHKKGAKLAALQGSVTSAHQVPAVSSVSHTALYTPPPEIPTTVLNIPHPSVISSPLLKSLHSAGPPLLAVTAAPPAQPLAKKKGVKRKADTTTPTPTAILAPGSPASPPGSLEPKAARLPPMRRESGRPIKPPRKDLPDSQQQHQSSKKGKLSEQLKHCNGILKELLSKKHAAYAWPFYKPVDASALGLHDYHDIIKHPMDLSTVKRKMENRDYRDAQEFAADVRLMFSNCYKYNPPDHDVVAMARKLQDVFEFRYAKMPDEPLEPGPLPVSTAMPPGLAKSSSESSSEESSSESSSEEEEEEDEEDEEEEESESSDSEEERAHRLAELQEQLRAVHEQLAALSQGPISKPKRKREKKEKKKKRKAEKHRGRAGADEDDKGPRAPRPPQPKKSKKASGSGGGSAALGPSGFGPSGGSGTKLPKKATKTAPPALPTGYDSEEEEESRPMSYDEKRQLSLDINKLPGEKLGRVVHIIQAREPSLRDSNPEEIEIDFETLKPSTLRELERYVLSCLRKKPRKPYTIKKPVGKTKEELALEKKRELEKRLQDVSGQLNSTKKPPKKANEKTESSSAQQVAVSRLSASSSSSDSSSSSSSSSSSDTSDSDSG
Assay: Binding affinity to human partial length BRD2 bromodomain 2 isoform 1 (E348 to D455 residues) expressed in bacterial expression system by BROMOscan assay
Conditions: not given

Row | Structure (SMILES) | pKd
12 | C/C=C/Cn1cc(-c2ccc(C(=O)N3CCOCC3)cc2)c2cc[nH]c2c1=O | 5.37
13 | C/C=C/Cn1cc(-c2cc(OC)c(C(C)(C)O)cc2OC)c2cc(C)[nH]c2c1=O | < 5.00

Tested on: DAN-G
Assay: Cytotoxicity against human DAN-G cells measured after 8 days
Format: functional, cell-based
Conditions: 192 h

Row | Structure (SMILES) | pIC50
14 | C/C=C/Cn1cc(-c2ccc(C(=O)N3CCOCC3)cc2)c2cc[nH]c2c1=O | 4.70

Tested on: not listed separately
Assay: Cytotoxicity against human NCI-H2595 cells measured after 8 days
Format: functional, cell-based
Conditions: NCI-H2595, 192 h

Row | Structure (SMILES) | pIC50
15 | C/C=C/Cn1cc(-c2ccc(C(=O)N3CCOCC3)cc2)c2cc[nH]c2c1=O | 4.70

Tested on: NCI-H520
Assay: Cytotoxicity against human NCI-H520 cells measured after 8 days
Format: functional, cell-based
Conditions: NCI-H520, 192 h

Row | Structure (SMILES) | pIC50
16 | C/C=C/Cn1cc(-c2ccc(C(=O)N3CCOCC3)cc2)c2cc[nH]c2c1=O | 4.70

Tested on: not listed separately
Assay: Cytotoxicity against human Ci-1 cells measured after 8 days
Format: functional, cell-based
Conditions: Ci-1, 192 h

Row | Structure (SMILES) | pIC50
17 | C/C=C/Cn1cc(-c2ccc(C(=O)N3CCOCC3)cc2)c2cc[nH]c2c1=O | 4.70

Tested on: HCC95
Assay: Cytotoxicity against human HCC95 cells measured after 8 days
Format: functional, cell-based
Conditions: HCC95, 192 h

Row | Structure (SMILES) | pIC50
18 | C/C=C/Cn1cc(-c2ccc(C(=O)N3CCOCC3)cc2)c2cc[nH]c2c1=O | 4.70

Species: Rattus norvegicus
Assay: Displacement of [125I]alpha-dendrotoxin from rat brain voltage-gated K channel at 10 uM after 60 mins by scintillation counting analysis relative to control
Conditions: not given

Row | Structure (SMILES) | Activity
19 | C/C=C/Cn1cc(-c2ccc(C(=O)N3CCOCC3)cc2)c2cc[nH]c2c1=O | 0%

Tested on: NCI-H1155
Assay: Cytotoxicity against human NCI-H1155 cells measured after 8 days
Format: functional, cell-based
Conditions: NCI-H1155, 192 h

Row | Structure (SMILES) | pIC50
20 | C/C=C/Cn1cc(-c2ccc(C(=O)N3CCOCC3)cc2)c2cc[nH]c2c1=O | 4.70

Tested on: not listed separately
Assay: Cytotoxicity against human SK-MEL-23 cells measured after 8 days
Format: functional, cell-based
Conditions: SK-MEL-23, 192 h

Row | Structure (SMILES) | pIC50
21 | C/C=C/Cn1cc(-c2ccc(C(=O)N3CCOCC3)cc2)c2cc[nH]c2c1=O | 4.70

Tested on: not listed separately
Assay: Cytotoxicity against human OCUM-1 cells measured after 8 days
Format: functional, cell-based
Conditions: OCUM1, 192 h

Row | Structure (SMILES) | pIC50
22 | C/C=C/Cn1cc(-c2ccc(C(=O)N3CCOCC3)cc2)c2cc[nH]c2c1=O | 4.70

Tested on: WSUDLCL2
Assay: Cytotoxicity against human WSUDLCL2 cells measured after 8 days
Format: functional, cell-based
Conditions: WSUDLCL2, 192 h

Row | Structure (SMILES) | pIC50
23 | C/C=C/Cn1cc(-c2ccc(C(=O)N3CCOCC3)cc2)c2cc[nH]c2c1=O | 5.08

Tested on: not listed separately
Assay: Cytotoxicity against human NCI-H1869 cells measured after 8 days
Format: functional, cell-based
Conditions: NCI-H1869, 192 h

Row | Structure (SMILES) | pIC50
24 | C/C=C/Cn1cc(-c2ccc(C(=O)N3CCOCC3)cc2)c2cc[nH]c2c1=O | 4.70

Target: T1, Muscle, skeletal receptor tyrosine-protein kinase (Homo sapiens) (UniProt O15146)
T1 sequence (whole entry): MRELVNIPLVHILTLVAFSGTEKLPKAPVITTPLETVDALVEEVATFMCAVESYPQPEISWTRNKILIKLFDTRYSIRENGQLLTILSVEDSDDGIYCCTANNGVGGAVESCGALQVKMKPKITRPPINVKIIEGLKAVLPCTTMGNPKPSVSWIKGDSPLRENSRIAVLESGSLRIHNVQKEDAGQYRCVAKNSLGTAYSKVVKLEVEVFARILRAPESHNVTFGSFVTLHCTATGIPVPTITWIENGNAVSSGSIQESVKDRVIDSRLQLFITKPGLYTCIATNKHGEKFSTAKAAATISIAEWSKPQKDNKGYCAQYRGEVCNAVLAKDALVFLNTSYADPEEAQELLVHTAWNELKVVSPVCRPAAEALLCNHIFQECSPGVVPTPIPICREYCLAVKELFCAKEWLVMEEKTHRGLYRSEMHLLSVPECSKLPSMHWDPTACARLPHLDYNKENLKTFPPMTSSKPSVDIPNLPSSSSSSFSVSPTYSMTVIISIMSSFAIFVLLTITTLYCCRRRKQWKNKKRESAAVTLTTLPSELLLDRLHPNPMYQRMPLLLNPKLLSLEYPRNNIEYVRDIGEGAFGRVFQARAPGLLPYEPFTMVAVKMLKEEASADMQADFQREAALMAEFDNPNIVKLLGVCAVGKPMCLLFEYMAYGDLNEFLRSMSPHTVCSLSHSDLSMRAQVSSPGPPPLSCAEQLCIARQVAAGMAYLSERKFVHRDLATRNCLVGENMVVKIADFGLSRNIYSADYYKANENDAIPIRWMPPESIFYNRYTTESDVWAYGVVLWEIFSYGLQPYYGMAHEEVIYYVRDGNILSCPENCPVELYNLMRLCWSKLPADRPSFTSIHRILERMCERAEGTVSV
Assay: Inhibition of MuSK (unknown origin) at 1 uM relative to control
Conditions: not given

Row | Structure (SMILES) | inhibition
25 | C/C=C/Cn1cc(-c2ccc(C(=O)N3CCOCC3)cc2)c2cc[nH]c2c1=O | -2.4%

Tested on: PA-1
Assay: Cytotoxicity against human PA-1 cells measured after 8 days
Format: functional, cell-based
Conditions: PA-1, 192 h

Row | Structure (SMILES) | pIC50
26 | C/C=C/Cn1cc(-c2ccc(C(=O)N3CCOCC3)cc2)c2cc[nH]c2c1=O | 4.70

Tested on: HEY
Assay: Cytotoxicity against human HEY cells measured after 8 days
Format: functional, cell-based
Conditions: 192 h

Row | Structure (SMILES) | pIC50
27 | C/C=C/Cn1cc(-c2ccc(C(=O)N3CCOCC3)cc2)c2cc[nH]c2c1=O | 4.70

Tested on: BT-549
Assay: Cytotoxicity against human BT-549 cells measured after 8 days
Format: functional, cell-based
Conditions: BT-549, 192 h

Row | Structure (SMILES) | pIC50
28 | C/C=C/Cn1cc(-c2ccc(C(=O)N3CCOCC3)cc2)c2cc[nH]c2c1=O | 4.70

Tested on: NCI-H441
Assay: Cytotoxicity against human NCI-H441 cells measured after 8 days
Format: functional, cell-based
Conditions: NCI-H441, 192 h

Row | Structure (SMILES) | pIC50
29 | C/C=C/Cn1cc(-c2ccc(C(=O)N3CCOCC3)cc2)c2cc[nH]c2c1=O | 4.70

Tested on: HCC1806
Assay: Cytotoxicity against human HCC1806 cells measured after 8 days
Format: functional, cell-based
Conditions: HCC1806, 192 h

Row | Structure (SMILES) | pIC50
30 | C/C=C/Cn1cc(-c2ccc(C(=O)N3CCOCC3)cc2)c2cc[nH]c2c1=O | 4.70

Tested on: LoVo
Assay: Cytotoxicity against human LoVo cells measured after 8 days
Format: functional, cell-based
Conditions: 192 h

Row | Structure (SMILES) | pIC50
31 | C/C=C/Cn1cc(-c2ccc(C(=O)N3CCOCC3)cc2)c2cc[nH]c2c1=O | 4.70

Tested on: KARPAS-422
Assay: Cytotoxicity against human KARPAS-422 cells measured after 8 days
Format: functional, cell-based
Conditions: KARPAS-422, 192 h

Row | Structure (SMILES) | pIC50
32 | C/C=C/Cn1cc(-c2ccc(C(=O)N3CCOCC3)cc2)c2cc[nH]c2c1=O | 4.84

Tested on: NUGC-4
Assay: Cytotoxicity against human NUGC-4 cells measured after 8 days
Format: functional, cell-based
Conditions: NUGC-4, 192 h

Row | Structure (SMILES) | pIC50
33 | C/C=C/Cn1cc(-c2ccc(C(=O)N3CCOCC3)cc2)c2cc[nH]c2c1=O | 4.70

Tested on: HCC4006
Assay: Cytotoxicity against human HCC4006 cells measured after 8 days
Format: functional, cell-based
Conditions: HCC4006, 192 h

Row | Structure (SMILES) | pIC50
34 | C/C=C/Cn1cc(-c2ccc(C(=O)N3CCOCC3)cc2)c2cc[nH]c2c1=O | 4.70

Tested on: not listed separately
Assay: Cytotoxicity against human NCI-H2373 cells measured after 8 days
Format: functional, cell-based
Conditions: NCI-H2373, 192 h

Row | Structure (SMILES) | pIC50
35 | C/C=C/Cn1cc(-c2ccc(C(=O)N3CCOCC3)cc2)c2cc[nH]c2c1=O | 4.70

Tested on: CAL-120
Assay: Cytotoxicity against human CAL-120 cells measured after 8 days
Format: functional, cell-based
Conditions: CAL-120, 192 h

Row | Structure (SMILES) | pIC50
36 | C/C=C/Cn1cc(-c2ccc(C(=O)N3CCOCC3)cc2)c2cc[nH]c2c1=O | 4.70

Tested on: MX1
Assay: Cytotoxicity against human MX1 cells measured after 8 days
Format: functional, cell-based
Conditions: MX1, 192 h

Row | Structure (SMILES) | pIC50
37 | C/C=C/Cn1cc(-c2ccc(C(=O)N3CCOCC3)cc2)c2cc[nH]c2c1=O | 4.70

Tested on: not listed separately
Assay: Cytotoxicity against human 501A cells measured after 8 days
Format: functional, cell-based
Conditions: 192 h

Row | Structure (SMILES) | pIC50
38 | C/C=C/Cn1cc(-c2ccc(C(=O)N3CCOCC3)cc2)c2cc[nH]c2c1=O | 4.70

Tested on: not listed separately
Assay: Cytotoxicity against human PL-21 cells measured after 8 days
Format: functional, cell-based
Conditions: PL-21, 192 h

Row | Structure (SMILES) | pIC50
39 | C/C=C/Cn1cc(-c2ccc(C(=O)N3CCOCC3)cc2)c2cc[nH]c2c1=O | 4.70

Tested on: not listed separately
Assay: Cytotoxicity against human GP2d cells measured after 8 days
Format: functional, cell-based
Conditions: 192 h

Row | Structure (SMILES) | pIC50
40 | C/C=C/Cn1cc(-c2ccc(C(=O)N3CCOCC3)cc2)c2cc[nH]c2c1=O | 4.70
